Results published in US10336702B2, “Pharmaceutically active compounds” (BERGENBIO ASA, priority 2015, dated 2019).

Experiments:
[1] = test system: MDA-MB-231D3H2LN/GFP-Luc mammary carcinoma cells; test: Lung metastasis after tail vein injection of TNBC cells; format: in vivo, NSG mice; conditions: 25 mg/kg twice a day
Method: Mice injected with MDA-MB-231D3H2LN/GFP-Luc mammary carcinoma cells and treated with vehicle or EX67 (25 mg/kg b.i.d.) over the course of 14 days were injected with D-luciferin (150 mg/kg) IP 10 minutes before being imaged. Whole-body imaging was performed on an Optix MX2 Small Animal Molecular Imager to measure the total photon count for each animal±SEM. n=10 for vehicle and n=10 for EX67 group.
The cellular program of epithelial to mesenchymal transition (EMT) is utilized by tumor cells to metastasize. The effect of EX67 on lung metastases was evaluated in a TNBC model.
NSG mice were injected in the tail vein with 500 000 MDA-MB-231D3H2LN/GFP-Luc mammary carcinoma cells. Mice were treated with Vehicle or 25 mg/kg EX67 twice a day. Metastases to the lung were evaluated by in vivo imaging after 3 weeks. Lung metastases were also evaluated macroscopically at the day of culling (see FIG. 14).
After 14 days, lung metastases were detected in 10/10 mice treated with Vehicle and 7/10 mice treated with EX67.

p-Akt2 in WM115 cells = biological target: T1, p-Akt2 in WM115 cells (Homo sapiens, UniProt P31751); test: Phospho-Akt cellular SureFire assay, p-Akt2 in WM115 cells; format: cell-based; conditions: insulin stimulated, read-out: Biological Assay 2 IC50 (nM) Akt2 WM115
T1 construct: SureFire assays to detect cellular p-Akt1, p-Akt2 and p-Akt3 levels in WM115 cells (Akt2/3) and LNCaP cells (Akt1); endogenous in cells; host or cells: WM115 (ECACC 91061232), insulin-stimulated
In short: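 Readout is a bead-proximity SureFire assay pairing a pThr308 Akt antibody with a total Akt2 antibody, lysate and beads incubated 2 h plus 2 h at room temperature in the dark. Before lysis, serum-starved WM115 cells received 100 nM insulin (10 min), then test compound (15 min, 0.3% DMSO); IC50 by 4-parameter equation.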

Akt3 = biological target: T2, Akt3 (Homo sapiens, UniProt Q9Y243); test: Akt activation assay (PDK1-mediated activation, LANCE Ultra crosstide TR-FRET), Akt3; format: biochemical; conditions: read-out: Biological Assay 1 IC50 (nM) Akt3
T2 construct: unspecified tag, removed (detagged) (cleaved yes); purchased SignalChem and Proteros (Akt3); Merck Millipore (PDK1) 14-452 (PDK1); none given for Akt3
In short: (§1)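 TR-FRET read-out (665/615 nm ratio) after Eu-anti-phospho-crosstide antibody, 1 h. Reaction: compound preincubated with Akt isoform, then 5 nM PDK1, lipid vesicles with 0.55 μM PtdIns(3,4,5)P3, 100 μM ATP, 100 nM crosstide, 30 min, EDTA stop. IC50 from 4-parameter equation.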

Akt2 = biological target: T3, Akt2 (Homo sapiens, UniProt P31751); test: Akt activation assay (PDK1-mediated activation, LANCE Ultra crosstide TR-FRET), Akt2; format: biochemical; conditions: read-out: Biological Assay 1 IC50 (nM) Akt2
T3 construct: unspecified tag, removed (detagged) (cleaved yes); purchased SignalChem and Proteros (Akt2); Merck Millipore (PDK1) 14-452 (PDK1); none given for Akt2
In short: as §1

p-Akt1 in LNCaP cells = biological target: T4, p-Akt1 in LNCaP cells (Homo sapiens, UniProt P31749); test: Phospho-Akt cellular SureFire assay, p-Akt1 in LNCaP cells; format: cell-based; conditions: read-out: Biological Assay 2 IC50 (nM) Akt1 LNCaP
T4 construct: SureFire assays to detect cellular p-Akt1, p-Akt2 and p-Akt3 levels in WM115 cells (Akt2/3) and LNCaP cells (Akt1); endogenous in cells; host or cells: LNCaP (ECACC 89110211)
In short: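 Phospho-Thr308 Akt1 detected by AlphaScreen SureFire proximity beads in LNCaP lysates after 15 min compound treatment at 37 °C in 0.1% FBS medium, unstimulated, 0.3% DMSO. Cells plated at 5×10^4/well overnight; IC50 from a 4-parameter equation.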

p-Akt3 in WM115 cells = biological target: T5, p-Akt3 in WM115 cells (Homo sapiens, UniProt Q9Y243); test: Phospho-Akt cellular SureFire assay, p-Akt3 in WM115 cells; format: cell-based; conditions: insulin stimulated, read-out: Biological Assay 2 IC50 (nM) Akt3 WM115
T5 construct: SureFire assays to detect cellular p-Akt1, p-Akt2 and p-Akt3 levels in WM115 cells (Akt2/3) and LNCaP cells (Akt1); endogenous in cells; host or cells: WM115 (ECACC 91061232), insulin-stimulated
In short: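 pThr308-Akt3 in lysates was quantified by bead-proximity SureFire detection, pairing a phospho-specific antibody with a total Akt3 antibody. Before lysis, WM115 cells in 0.1% FBS medium were treated for 15 min at 37 °C with compound (final DMSO 0.3%), following a 10 min stimulation with 100 nM insulin. IC50 was obtained by 4-parameter fitting.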

Akt1 = biological target: T6, Akt1 (Homo sapiens, UniProt P31749); test: Akt activation assay (PDK1-mediated activation, LANCE Ultra crosstide TR-FRET), Akt1; format: biochemical; conditions: read-out: Biological Assay 1 IC50 (nM) Akt1
T6 construct: unspecified tag, removed (detagged) (cleaved yes); purchased SignalChem and Proteros (Akt1); Merck Millipore (PDK1) 14-452 (PDK1); none given for Akt1
In short: as §1

T6 sequence (P31749 whole entry): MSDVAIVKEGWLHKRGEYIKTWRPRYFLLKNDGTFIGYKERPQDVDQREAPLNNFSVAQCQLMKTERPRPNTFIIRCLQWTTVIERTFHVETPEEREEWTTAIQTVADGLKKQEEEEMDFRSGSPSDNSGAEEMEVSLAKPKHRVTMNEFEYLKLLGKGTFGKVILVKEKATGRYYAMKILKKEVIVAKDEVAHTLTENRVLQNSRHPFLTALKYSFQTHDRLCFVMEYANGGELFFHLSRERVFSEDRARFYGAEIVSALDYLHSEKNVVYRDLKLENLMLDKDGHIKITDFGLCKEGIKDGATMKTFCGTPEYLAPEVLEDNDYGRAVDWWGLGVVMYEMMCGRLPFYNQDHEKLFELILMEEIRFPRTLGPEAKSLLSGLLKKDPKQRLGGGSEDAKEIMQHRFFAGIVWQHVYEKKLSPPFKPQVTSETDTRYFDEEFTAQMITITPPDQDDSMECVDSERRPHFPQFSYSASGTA
T4 sequence (P31749 whole entry): as above
T1 sequence (P31751 whole entry): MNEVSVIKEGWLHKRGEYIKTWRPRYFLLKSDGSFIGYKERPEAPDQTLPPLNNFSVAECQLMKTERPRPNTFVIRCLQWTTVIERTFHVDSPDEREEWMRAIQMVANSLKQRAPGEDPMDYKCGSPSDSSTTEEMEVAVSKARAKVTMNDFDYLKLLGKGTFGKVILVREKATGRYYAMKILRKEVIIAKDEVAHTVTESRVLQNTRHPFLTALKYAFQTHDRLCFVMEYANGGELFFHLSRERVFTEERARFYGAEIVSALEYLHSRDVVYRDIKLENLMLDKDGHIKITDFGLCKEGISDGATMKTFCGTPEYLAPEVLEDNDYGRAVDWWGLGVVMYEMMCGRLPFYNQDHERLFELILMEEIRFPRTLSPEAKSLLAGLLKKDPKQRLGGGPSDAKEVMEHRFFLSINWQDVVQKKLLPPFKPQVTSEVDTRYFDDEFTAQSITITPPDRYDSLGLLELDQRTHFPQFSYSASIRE
T3 sequence (P31751 whole entry): as above
T5 sequence (Q9Y243 whole entry): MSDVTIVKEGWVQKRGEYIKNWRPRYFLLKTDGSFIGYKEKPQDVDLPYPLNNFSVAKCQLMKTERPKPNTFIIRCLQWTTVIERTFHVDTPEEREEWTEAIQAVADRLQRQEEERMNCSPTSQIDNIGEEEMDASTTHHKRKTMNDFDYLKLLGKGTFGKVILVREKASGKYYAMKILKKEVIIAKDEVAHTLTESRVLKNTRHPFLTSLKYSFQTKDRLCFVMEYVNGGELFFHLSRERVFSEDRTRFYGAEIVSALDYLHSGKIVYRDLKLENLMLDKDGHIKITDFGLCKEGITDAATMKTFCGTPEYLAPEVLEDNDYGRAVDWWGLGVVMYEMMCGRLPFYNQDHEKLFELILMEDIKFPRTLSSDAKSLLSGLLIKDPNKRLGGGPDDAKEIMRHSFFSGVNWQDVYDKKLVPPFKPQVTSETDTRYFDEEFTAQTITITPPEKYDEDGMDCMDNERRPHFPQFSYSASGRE
T2 sequence (Q9Y243 whole entry): as above

| Structure (SMILES) | IC50 (p-Akt2 in WM115 cells) [nM] | IC50 (Akt3) [nM] | IC50 (Akt2) [nM] | IC50 (p-Akt1 in LNCaP cells) [nM] | IC50 (p-Akt3 in WM115 cells) [nM] | IC50 (Akt1) [nM] | lung metastases [1] | mice with lung metastases detected ([1]; after 14 days, vehicle 10/10) |
| --- | --- | --- | --- | --- | --- | --- | --- | --- |
| COC(=O)N(C)[C@H]1CC[C@H](CC(=O)Nc2cc(-c3ccccc3)c(-c3ccc([C@]4(N)C[C@](C)(O)C4)cc3)cn2)CC1 [EX67] |  |  |  |  |  |  | prevented metastases compared to vehicle-treated mice in a sub-set of animals | 7/10 |
| CN(C(=O)C(F)F)[C@H]1CC[C@H](CC(=O)Nc2cnc(-c3ccc(C(C)(C)N)cc3)c(-c3ccccc3)c2)CC1 [Example A7, N-(trans-4-(2-((6-(4-(2-aminopropan-2-yl)phenyl)-5-phenylpyridin-3-yl)amino)-2-oxoethyl)cyclohexyl)-2,2-difluoro-N-methylacetamide] | 7100 | 70 | 5800 | > 30000 | 230 | > 30000 |  |  |
| CCC(=O)N(C)[C@H]1CC[C@H](CC(=O)Nc2cnc(-c3ccc(C(C)(C)N)cc3)c(-c3ccccc3)c2)CC1 [Example A95, N-(trans-4-(2-((6-(4-(2-aminopropan-2-yl)phenyl)-5-phenylpyridin-3-yl)amino)-2-oxoethyl)cyclohexyl)-N-methylpropionamide] | 3100 | 54 | 3300 | > 30000 | 110 | > 30000 |  |  |

Continued, in another order:

| IC50 (p-Akt2 in WM115 cells) [nM] | IC50 (Akt3) [nM] | IC50 (Akt2) [nM] | IC50 (p-Akt1 in LNCaP cells) [nM] | IC50 (p-Akt3 in WM115 cells) [nM] | IC50 (Akt1) [nM] | Structure (SMILES) | lung metastases [1] | mice with lung metastases detected ([1]; after 14 days, vehicle 10/10) |
| --- | --- | --- | --- | --- | --- | --- | --- | --- |
| > 30000 | 100 | 10000 | > 30000 | 330 | > 30000 | COC(=O)N(C)[C@H]1CC[C@H](CC(=O)Nc2cc(-c3ccccc3)c(-c3ccc(C(C)(C)N)cc3)nn2)CC1 [Example 56, Methyl (trans-4-(2-((6-(4-(2-aminopropan-2-yl)phenyl)-5-phenylpyridazin-3-yl)amino)-2-oxoethyl)cyclohexyl)(methyl)carbamate] |  |  |
| 8300 | 80 | 4000 | > 30000 | 130 | > 30000 | CCC(=O)N(C)[C@H]1CC[C@H](CC(=O)Nc2cnc(-c3ccc(C4(N)CC4)c(F)c3)c(-c3ccccc3)c2)CC1 [Example A89, N-(trans-4-(2-((6-(4-(1-aminocyclopropyl)-3-fluorophenyl)-5-phenylpyridin-3-yl)amino)-2-oxoethyl)cyclohexyl)-N-methylpropionamide] |  |  |
| 5000 | 16 | 380 | > 30000 | 310 | > 16000 | COC(=O)N(C)[C@H]1CC[C@H](CC(=O)Nc2cc(-c3ccccc3)c(-c3ccc(C4(N)CCC4)cc3)nn2)CC1 [Example A55, Methyl (trans-4-(2-((6-(4-(1-aminocyclobutyl)phenyl)-5-phenylpyridazin-3-yl)amino)-2-oxoethyl)cyclohexyl)(methyl)carbamate] |  |  |
